# According to US6660837B1, “Modified protein derived from protein kinase N” (Kirin Beer Kabushiki Kaisha, priority 1995, dated 2003):
# How the values were obtained:
# [1] = system: head-rod domain of vimentin; test: Yeast two-hybrid, PKN N-terminal region with vimentin; type: binding; conditions: data not shown
# Text: Specificity of the interaction between PKN and various NFs was investigated by measuring the ability of the two-hybrid constructs, pBTM116(Vojtek, A. B. et al., Cell, 74, 205-214 (1993)) (instead of pGBT9)-PKN and pVP16 (Vojtek, A. B. et al., Cell, 74, 205-214 (1993)) (instead of pGAD10)-NF or in reverse, to support lacZ expression in L40 cells.
# To determine whether N-terminal region of PKN binds to NFM or NFH as well as NFL, corresponding region to the head-rod domain of NFM or NFH was ligated to pVP16 and lacZ expression was measured in two-hybrid system. The N-terminal region of PKN bound to each head-rod domain of NF subunit (FIG. 11(B)), and also interacted with the corresponding head-rod domain of vimentin, a ubiquitously expressed member of intermediate filament, in two-hybrid system (data not shown).
# [2] = target: T1, carboxyl-terminal catalytic region of PKN (Homo sapiens, UniProt Q16512); test: In vitro binding, regulatory with catalytic region of PKN (GST pull-down)
# T1 construct: made in house; host or cells: in vitro translation in reticulocyte lysate (Promega)
# T1 sequence (Q16512 614-942): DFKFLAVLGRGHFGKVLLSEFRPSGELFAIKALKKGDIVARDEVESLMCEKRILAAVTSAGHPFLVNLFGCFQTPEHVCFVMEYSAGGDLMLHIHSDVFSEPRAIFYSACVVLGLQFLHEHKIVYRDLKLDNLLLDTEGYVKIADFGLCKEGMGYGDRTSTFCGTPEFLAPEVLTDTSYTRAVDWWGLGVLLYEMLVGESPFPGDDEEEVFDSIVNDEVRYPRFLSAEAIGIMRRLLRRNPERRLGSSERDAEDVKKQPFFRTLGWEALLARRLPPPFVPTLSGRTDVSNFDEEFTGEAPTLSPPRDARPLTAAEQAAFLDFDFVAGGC
# Text: Truncated human PKN was made as follows; expression vector pPKN-N for amino-terminal region of PKN was made by digesting phPKN-H4 (human PKN cDNA inserted in pBluescript II SK) (Mukai, H. & Ono, Y., Biochem. Biophys. Res. Commun. 199, 897-904 (1994)) with BstEII, and filling-in both the ends with T4 DNA polymerase, and self-ligation. The resulting plasmid codes for amino acid residues of PKN from 1 to 474 in SEQ ID NO: 1. cDNA insert from this plasmid was cloned into pRc/CMV (Invitrogen Corp.). Fragment coding for the amino acids 614-942, in SEQ ID NO: 1, containing the catalytic domain of human PKN was made by PCR amplification. Expression vector pPKN-C for the carboxyl-terminal region of PKN was made by subcloning this fragment into pRc/CMV. These plasmids were linealized by cutting with XbaI, and cRNA was transcribed using T7 RNA polymerase. cRNA was translated in a […] reticulocyte lysate (Promega) in the presence of [^35S] methionine. […]
# In vitro translated PKN-N or PKN-C (2.5 μl) was mixed with 5 μg of each GST-PKN-N or GST-PKN-C fusion protein or 25 μg of GST alone in 400 μl of GST binding buffer [20 mM Tris/HCl (pH 7.5), 0.5 mM DTT, 150 mM NaCl, 0.05% Triton X-100, 1 mM EDTA, 1 μg/ml leupeptin] and incubated for 1 hr at 4° C. […] Quantification of the binding reactions was carried out by a BAS 1000 bio-imaging analyzer (FUJI).
substance,measurement,setting,value
"N-terminal region of PKN: N-terminal regulatory region of human PKN: 1-540 (PKNN1) in two-hybrid and GST fusions, 1-474 when in vitro translated",interaction with head-rod domain of vimentin in two-hybrid system,[1],interacted
same,binding to carboxyl-terminal catalytic region of PKN in vitro,[2],directly binds
